The values that follow are results of earlier work, collected in patent US20100047343A1, “MULTIPARTICULATE FORMULATION HAVING TRAMADOL IN IMMEDIATE AND CONTROLLED RELEASE FORM” (The University of Kansas, priority 2006, published 2010).

For data set [1] the following is noted: for accumulation: multiple dose treatment with tramadol HCl; for half-life: single oral dose of 100 mg.
The conditions of data set [2]: single oral dose of rapid release tramadol HCl (100 mg).
[3] abbreviates: after oral administration of ULTRAM.

SMILES strings stand for the structures. Structures can show the parent of a compound that is named as a salt. Where two headings read alike, the source gives them in different places.

Broadly, the half-life is how long it takes for the measured level to halve. For `CN(C)C[C@H]1CCCC[C@]1(O)c1cccc(O)c1` [M1 derivative], in data set [1], the accumulation entry was “approximately 2 fold” and the half-life was 9 h.
What is called bioavailability is the share of a dose that reaches the circulation, judged against a reference dose that is usually intravenous. For `COc1cccc(C2(O)CCCCC2CN(C)C)c1` (centres unmarked) [tramadol HCl], in data set [2], the “duration of the analgesic effect” value is “about 6 hours”. In data set [1] (setting [3]), the bioavailability was 68% and the “time to peak serum concentrations” value was not above 2 h. Where the note is “24° C.”, the solubility in water is 790 mg/mL. Moreover, for the setting “37° C.”, the “density of saturated solution” value is reported as 1.1079, the solubility in water is recorded as 840 mg/mL and the “viscosity (sat'd. sol.)” value was 86.5 cp.
For the compound `COc1cccc(C2(O)CCCCC2CN(C)C)c1` (centres unmarked) [tramadol], in data set [1], the accumulation entry is recorded as “approximately 2 fold” and the half-life is 5.1 h.
